Laboratory results reported in patent US10993951B2, “Fosfomycin formulation for parenteral administration” (priority 2016, dated 2021).
≈ marks a conversion by molar mass, not a printed value. Read-outs that look alike come from different tables or passages of the source.

What was measured:
Assay in all cases: MIC by tube dilution in microtiter plates, stored fosfomycin solution
Format in all cases: cell-based
Details in all cases: read-out: minimal inhibitory concentration (MIC)
[1] = system: Staphylococcus aureus ATTC 49775
Excerpt: (§1) The objective of the present investigation was to find out whether the antimicrobial activity of fosfomycin with a pH suitable for intravenous administration is maintained in a solvent suitable for intravenous use. For this, fosfomycin disodium (14.5 mmol sodium/g) and succinic acid were used to adjust the pH (0.025 grams of succinic acid per gram of fosfomycin).
(§2) A stock solution of 4 g of fosfomycin disodium and succinic acid (0.025 grams of succinic acid per gram of fosfomycin, corresponding to about 3 g of fosfomycin) in 10 ml distilled water was prepared and divided into 5 cryotubes at 2 ml each, and the solution was exposed at different temperatures as follows:
(§3) Aliquots of 2 ml of the sample were stored at −80° C., at refrigerator temperature (2-8° C.), at room temperature (20-25° C.), and at 45-65° C. until the test end. Another 2 ml of the stock solution were stored at refrigerator temperature (2-8° C.) and autoclaved before the tests at 125° C. for 30 minutes. After that, all samples were tested for their antimicrobioal activity.
(§4) To determine the antimicrobial activity of fosfomycin, the minimal inhibitory concentration (MIC) of the 4 mentioned bacteria strains was determined by a tube dilution method in microtiter plates using Mueller-Hinton broth. For the inoculation of the microtiter plates, the inoculum was adjusted to 1.5×104 germs/ml. The evaluation was made after 24 hours of incubation at 37° C.
(§5) Samples were taken, starting with 2,000 μg/ml test substance, diluted by a factor 2. Serial dilutions of 2,000 μg/ml to […] were prepared.

[2] = system: Staphylococcus aureus ATTC 33592
Excerpt: as §1, §2, §3, §4, §5

[3] = system: Staphylococcus hominis AG 1115
Excerpt: as §1, §2, §3, §4, §5

[4] = system: Escherichia coli AG 1215

MIC ([1]; ATTC49775, 456 h, storage temp. −80 °C, storage period 19 days): 3.9 µg/mL (≈ 28.2 µM) | MIC ([1]; ATTC49775, storage temp. 20-25 °C, storage period 31 days): 15.6 µg/mL (≈ 113 µM) | MIC ([1]; ATTC49775, storage temp. 45-65 °C, storage period 31 days): 7.8 µg/mL (≈ 56.5 µM) | MIC ([1]; ATTC49775, storage temp. −80 °C, storage period 31 days): 3.9 µg/mL (≈ 28.2 µM) | MIC ([2]; ATTC33592, 0 h, storage temp. 20-25 °C, storage period 0 days): 7.8 µg/mL (≈ 56.5 µM) | MIC ([2]; ATTC33592, 0 h, storage temp. 45-65 °C, storage period 0 days): 15.6 µg/mL (≈ 113 µM) | MIC ([2]; ATTC33592, 0 h, storage temp. −80 °C, storage period 0 days): 15.6 µg/mL (≈ 113 µM) | MIC ([2]; ATTC33592, 125 °C (refrigerator storage, autoclaved 30 minutes before tests), storage period 0 days): 15.6 µg/mL (≈ 113 µM) | MIC ([2]; ATTC33592, 125 °C (refrigerator storage, autoclaved 30 minutes before tests), storage period 19 days): 31.2 µg/mL (≈ 226 µM) | MIC ([2]; ATTC33592, 125 °C (refrigerator storage, autoclaved 30 minutes before tests), storage period 31 days): 7.8 µg/mL (≈ 56.5 µM) | MIC ([2]; ATTC33592, 456 h, storage temp. 20-25 °C, storage period 19 days): 15.6 µg/mL (≈ 113 µM) | MIC ([2]; ATTC33592, 456 h, storage temp. 45-65 °C, storage period 19 days): 31.2 µg/mL (≈ 226 µM) | MIC ([2]; ATTC33592, 456 h, storage temp. −80 °C, storage period 19 days): 7.8 µg/mL (≈ 56.5 µM) | MIC ([2]; ATTC33592, storage temp. 20-25 °C, storage period 31 days): 7.8 µg/mL (≈ 56.5 µM) | MIC ([2]; ATTC33592, storage temp. 45-65 °C, storage period 31 days): 7.8 µg/mL (≈ 56.5 µM) | MIC ([2]; ATTC33592, storage temp. −80 °C, storage period 31 days): 7.8 µg/mL (≈ 56.5 µM) | MIC ([3]; AG1115, 125 °C (refrigerator storage, autoclaved 30 minutes before tests), storage period 27 days): 15.6 µg/mL (≈ 113 µM) | MIC ([3]; AG1115, 125 °C (refrigerator storage, autoclaved 30 minutes before tests), storage period 31 days): 7.8 µg/mL (≈ 56.5 µM) | MIC ([3]; AG1115, 125 °C (refrigerator storage, autoclaved 30 minutes before tests), storage period 54 days): 7.8 µg/mL (≈ 56.5 µM) | MIC ([3]; AG1115, 125 °C (refrigerator storage, autoclaved 30 minutes before tests), storage period 59 days): 15.6 µg/mL (≈ 113 µM) | MIC ([3]; AG1115, 125 °C (refrigerator storage, autoclaved 30 minutes before tests), storage period 64 days): 31.2 µg/mL (≈ 226 µM) | MIC ([3]; AG1115, 125 °C (refrigerator storage, autoclaved 30 minutes before tests), storage period 92 days): 31.2 µg/mL (≈ 226 µM) | MIC ([3]; AG1115, 648 h, storage temp. 20-25 °C, storage period 27 days): 31.2 µg/mL (≈ 226 µM) | MIC ([3]; AG1115, 648 h, storage temp. 45-65 °C, storage period 27 days): 15.6 µg/mL (≈ 113 µM) | MIC ([3]; AG1115, 648 h, storage temp. −80 °C, storage period 27 days): 7.8 µg/mL (≈ 56.5 µM) | MIC ([3]; AG1115, storage temp. 4-8 °C, storage period 31 days): 7.8 µg/mL (≈ 56.5 µM) | MIC ([3]; AG1115, storage temp. 4-8 °C, storage period 54 days): 7.8 µg/mL (≈ 56.5 µM) | MIC ([3]; AG1115, storage temp. 4-8 °C, storage period 59 days): 15.6 µg/mL (≈ 113 µM) | MIC ([3]; AG1115, storage temp. 20-25 °C, storage period 31 days): 7.8 µg/mL (≈ 56.5 µM) | MIC ([3]; AG1115, storage temp. 20-25 °C, storage period 54 days): 15.6 µg/mL (≈ 113 µM) | MIC ([3]; AG1115, storage temp. 20-25 °C, storage period 59 days): 7.8 µg/mL (≈ 56.5 µM) | MIC ([3]; AG1115, storage temp. 20-25 °C, storage period 64 days): 31.2 µg/mL (≈ 226 µM) | MIC ([3]; AG1115, storage temp. 20-25 °C, storage period 92 days): 62.5 µg/mL (≈ 453 µM) | MIC ([3]; AG1115, storage temp. 45-65 °C, storage period 31 days): 3.9 µg/mL (≈ 28.2 µM) | MIC ([3]; AG1115, storage temp. 45-65 °C, storage period 54 days): 15.6 µg/mL (≈ 113 µM) | MIC ([3]; AG1115, storage temp. 45-65 °C, storage period 59 days): 15.6 µg/mL (≈ 113 µM) | MIC ([3]; AG1115, storage temp. 45-65 °C, storage period 64 days): 15.6 µg/mL (≈ 113 µM) | MIC ([3]; AG1115, storage temp. 45-65 °C, storage period 92 days): 62.5 µg/mL (≈ 453 µM) | MIC ([3]; AG1115, storage temp. −80 °C, storage period 31 days): 7.8 µg/mL (≈ 56.5 µM) | MIC ([3]; AG1115, storage temp. −80 °C, storage period 54 days): 7.8 µg/mL (≈ 56.5 µM) | MIC ([3]; AG1115, storage temp. −80 °C, storage period 59 days): 15.6 µg/mL (≈ 113 µM) | MIC ([3]; AG1115, storage temp. −80 °C, storage period 64 days): 15.6 µg/mL (≈ 113 µM) | MIC ([3]; AG1115, storage temp. −80 °C, storage period 92 days): 15.6 µg/mL (≈ 113 µM) | MIC ([4]; AG1215, 648 h, storage temp. 4-8 °C, storage period 27 days): 62.5 µg/mL (≈ 453 µM) | MIC ([4]; AG1215, storage temp. 4-8 °C, storage period 59 days): 62.5 µg/mL (≈ 453 µM) | MIC ([4]; AG1215, storage temp. 4-8 °C, storage period 64 days): 15.6 µg/mL (≈ 113 µM)
Compound: C[C@@H]1O[C@@H]1P(=O)(O)O [Fosfomycin, fosfomycin]
